# Results taken from patent US20190231771A1, “METHODS FOR TREATMENT AND PREVENTION OF OPIOID INDUCED CONSTIPATION USING ORAL COMPOSITIONS OF METHYLNALTREXONE” (Salix Pharmaceuticals, Ltd., priority 2011, published 2019).
# Key:
# [1] = test system: subjects with chronic non-malignant pain who have Opioid Induced Constipation (OIC); test: Phase 3 randomized double-blind placebo-controlled study of Oral Methylnaltrexone for OIC; format: in vivo, human
# Description: A phase 3, multicenter, randomized, double-blind, placebo-controlled, parallel-group study of OM for the treatment of OIC in approximately 802 subjects with chronic non-malignant pain was conducted.
# Constipation due to opioid use during the screening period: Constipation is defined as <3 Rescue-Free Bowel Movements (RFBMs) per week on average (no laxative use within 24 hours prior to bowel movement) that were associated with 1 or more of the following (based on subject's diary report): • a. A Bristol Stool Form Scale type 1 or 2 for at least 25% of the rescue-free bowel movements. • b. Straining during at least 25% of the rescue-free bowel movements. • c. A sensation of incomplete evacuation after at least 25% of the rescue-free bowel movements.
# Subjects who remained eligible at the baseline visit (day 1) were randomly assigned to either OM tablet formulation 150 mg, 300 mg, 450 mg, or placebo initially in a 1:1:1:1 allocation ratio. Subjects were required to take three tablets per day, first thing in the morning on an empty stomach (prior to breakfast). Subjects were instructed to swallow the tablets whole and never to chew, divide, or crush them and wait at least one half hour before ingesting any food. Subjects participated in the study for up to 84 days. The first 28 days were once daily dosing; the remaining 56 days were dosing as needed (PRN). Dosing remained double-blind throughout the 12 week period (84 days). The 84 day treatment period were followed by a 14-day post-treatment follow-up period (±2 days). Enrollment continued until a total of approximately 802 subjects have been randomized and dosed.
# At the baseline visit, subjects were randomly assigned to either OM or placebo. Subjects who met all inclusion and no exclusion criteria at the baseline visit (day 1) received study medication. All doses were to be taken in the morning prior to breakfast [The first dose administered at the baseline visit could have been taken after Noon (12:00 pm)] and subjects were instructed to wait at least one half hour before ingesting any food. Subjects participated in the study for up to 84 days: the first 28 days were double-blind once daily dosing; the remaining 56 days were double-blind PRN dosing.
# The primary efficacy endpoint of this Phase 3 study was the average proportion of rescue-free laxation responses per subject within 4 hours of all doses during the first four weeks of dosing. The key secondary efficacy endpoints in hierarchical order were:
# 1. Change in weekly number of RFBM from baseline during Weeks 1 to 4
# 2. Response (responder/non-responder) to study drug during Weeks 1 to 4, where responder was defined as having ≥3 RFBM/week, with at least 1 RFBM/week increase over baseline, for at least 3 out of the first 4 weeks.
# The primary efficacy endpoint was the average proportion of rescue-free laxation responses per subject within 4 hours of all doses during the first 4 weeks of dosing.
# The two key secondary efficacy endpoints in hierarchical order were: • 1. Change in weekly number of RFBMs from baseline over the entire first 4 weeks (28 days) of dosing. • 2. Response (responder/non-responder) to study drug during Weeks 1 to 4, where responder is defined as having […], with at least 1 RFBM/week increase over baseline, for at least 3 out of the first 4 weeks. […]
# [2] = rats; cited from earlier work
# [3] = 150 mg, 300 mg and 450 mg daily oral vs placebo
smiles,measurement,setting,value
"C[N@+]1(CC2CC2)CC[C@]23c4c5ccc(O)c4O[C@H]2C(=O)CC[C@@]3(O)[C@H]1C5.[Br-] [MNTX, (R)—N-(cyclopropylmethyl) noroxymorphone methobromide]",primary efficacy endpoint: average proportion of rescue free bowel movements per subject within 4 hours of all doses during the first 4 weeks of dosing,[1]; [3],demonstrate efficacy
same,secondary efficacy endpoints: change in weekly number of RFBMs from baseline weeks 1-4; response to study drug,[1]; [3],further demonstrate efficacy
same,adverse events,"[1]; dosages of 150 mg, 300 mg and 450 mg",did not result in adverse events
same,proportion of subjects with rescue free bowel movements within 4 hours of the first dose,[1]; first dose of study drug,further confirmed efficacy
same,"laxation effects, fasted compared to non-fasted subjects","[1]; phase 3 study, following the first dose of study drug",increased in fasted subjects compared to non-fasted subjects
same,estimated bioavailability after oral administration,[2],less than 1%
